Patent US20260242452A1, “METHOD FOR DEGRADING TARGET PROTEIN” (Inter-University Research Institute Corporation Research …, priority 2023, published 2026)

Columns and labels:
Type in all cases: cell-based, human
DHC1-GFP = assay: Degradation of DHC1-GFP, GFP fluorescence quantified by flow cytometry (FACS); conditions: 1 μM 5-Ph-IAA, 4 hours; HCT116 cells expressing DHC1-GFP, OsTIR1 (F74G) and GFP nanobody adapter
Protocol: (§1) As an mAID-single-chain antibody (nanobody) gene (also referred to as an adapter), a wild-type (WT adapter) and a ubiquitination-resistant mutant (KR adapter) in which all lysine residues (K) in the amino acid sequence encoded by the mAID-single-chain antibody (nanobody) gene were substituted with arginine residues (R) were prepared.
(§2) A co-expression vector in which the OsTIR1 (F74G) gene and the WT adapter or the KR adapter were connected by a self-cleaving sequence P2A gene was prepared (see FIG. 2).
(§3) In the chromosome of HCT116 cells, DNA encoding GFP was introduced into the downstream of DNA encoding each of the nuclear protein SMC6 and the cytoplasmic protein DHC1 by transposon, and cells expressing SMC6-GFP and cells expressing DHC1-GFP were prepared.
(§4) A co-expression vector containing an adapter (WT adapter; KR adapter) that contains a gene encoding a GFP nanobody (GFP nanobody WT gene sequence (SEQ ID NO: 9); GFP nanobody KR gene sequence (SEQ ID NO: 10)), together with the OsTIR1 (F74G) gene, was introduced into the cells expressing each SMC6-GFP and DHC1-GFP. […]
(§5) These cells were treated with 1 μM 5-Ph-IAA for 4 hours, and the GFP fluorescence in the cells was quantified using flow cytometry. […]
as §5

RAD21-GFP = assay: Degradation of RAD21-GFP, GFP fluorescence quantified by flow cytometry (FACS); conditions: 1 μM 5-Ph-IAA, 4 hours; HCT116 cells expressing RAD21-GFP, OsTIR1 (F74G) and GFP nanobody adapter
Protocol: As the mAID-single-chain antibody (nanobody) gene, in addition to the WT adapter and the KR adapter, a hybrid adapter in which all lysine residues (K) in the amino acid sequence encoded by the mAID gene were substituted with arginine residues (R) was prepared. As in Example 1, a co-expression vector in which the OsTIR1 (F74G) gene and the WT adapter, the KR adapter, or the hybrid adapter were connected by a self-cleaving sequence P2A gene was prepared (see FIG. 7).
In the chromosome of HCT116 cells, DNA encoding GFP was added to the downstream of DNA encoding each of the nuclear protein SMC6, the nuclear protein RAD21, and the cytoplasmic protein DHC1 by genome editing, and cells expressing SMC6-GFP and cells expressing DHC1-GFP were prepared (see FIG. 8).
A co-expression vector containing an adapter (WT adapter; KR adapter; hybrid adapter) that contains a gene encoding a GFP nanobody (GFP nanobody WT (SEQ ID NO: 9); GFP nanobody KR (SEQ ID NO: 10)), together with the OsTIR1 (F74G) gene, was introduced into the cells expressing each SMC6-GFP, RAD21-GFP, and DHC1-GFP by transposon. As a control, a plasmid in which only OsTIR1 (F74G) and mAID were expressed was introduced (see FIG. 8).
as §5

endogenous RAS = assay: Expression level of endogenous RAS by Western blotting; conditions: 1 μM 5-Ph-IAA, 6 hours; cells expressing OsTIR1 (F74G) and RAS nanobody hybrid adapter
Protocol: Furthermore, the same experiment was performed using an adapter (KR adapter; hybrid adapter) containing a gene encoding a RAS nanobody (gene sequence of RAS nanobody WT (SEQ ID NO: 14), amino acid sequence of RAS nanobody WT (SEQ ID NO: 15); gene sequence of RAS nanobody KR (SEQ ID NO: 16), amino acid sequence of RAS nanobody KR (SEQ ID NO: 17)) (see the left part of FIG. 11). The cells were treated with 1 μM 5-Ph-IAA for 6 hours, and the expression level of endogenous RAS was confirmed by Western blotting. The results are shown in the right part of […].

SMC6-GFP = assay: Degradation of SMC6-GFP, GFP fluorescence quantified by flow cytometry (FACS); conditions: 1 μM 5-Ph-IAA, 4 hours; HCT116 cells expressing SMC6-GFP, OsTIR1 (F74G) and GFP nanobody adapter
Protocol: as §1, §2, §3, §4, §5, §5

endogenous p53 = assay: Expression level of endogenous p53 by Western blotting; conditions: 1 μM 5-Ph-IAA, 6 hours; cells expressing OsTIR1 (F74G) and p53 nanobody KR adapter
Protocol: (§6) Furthermore, the same experiment was performed using an adapter (WT adapter; KR adapter) containing a gene encoding a p53 nanobody (p53 nanobody WT gene sequence (SEQ ID NO: 11); p53 nanobody KR gene sequence (SEQ ID NO: 12)) (see the left part of FIG. 6). The cells were treated with 1 μM 5-Ph-IAA for 6 hours, and the expression level of endogenous p53 was confirmed by Western blotting. The results are shown in the right part of FIG. 6.
as §6, with “adapter; KR adapter; hybrid adapter) containing” for “adapter; KR adapter) containing”, “of FIG. 10). The cells” for “of FIG. 6). The cells”

O=C(O)Cc1c[nH]c2ccc(-c3ccccc3)cc12 [Formula 5-Ph-IAA, 5-Ph-IAA]
5-Ph-IAA-dependent degradation of target protein DHC1-GFP (GFP fluorescence) (DHC1-GFP): could be degraded
5-Ph-IAA-dependent degradation of target protein RAD21-GFP (GFP fluorescence) (RAD21-GFP): could be degraded
5-Ph-IAA-dependent degradation of endogenous RAS (Western blotting) (endogenous RAS): could be efficiently degraded
5-Ph-IAA-dependent degradation of target protein SMC6-GFP (GFP fluorescence) (SMC6-GFP): could be degraded
5-Ph-IAA-dependent degradation of endogenous p53 (Western blotting) (endogenous p53): could be degraded
